The values that follow come from ChEMBL document CHEMBL3046732, “Synthesis and biological evaluation of new [1,3,4]thiadiazepino[7,6-b]quinolin-2-amines as potent anti-microbial agents” (2013).

Each structure is given as a SMILES string. Bounds are passed on as bounds.

For one assay, the system named is Curvularia australiensis. Kind of assay: Antimicrobial activity against Curvularia australiensis assessed as growth inhibition by microdilution method. The class given is functional. For orientation: Broth dilution looks for growth in wells or tubes with falling amounts of substance.
Another assay relates to Aspergillus niger. Kind of assay: Antimicrobial activity against Aspergillus niger assessed as growth inhibition by microdilution method. The class given is functional.
For the next assay, the system named is Alternaria alternata. Briefly: Antimicrobial activity against Alternaria alternata assessed as growth inhibition by microdilution method. Format: functional.
The subject of a further assay is Aspergillus flavus. Briefly: Antimicrobial activity against Aspergillus flavus assessed as growth inhibition by microdilution method. The class given is functional.
For a further assay, the system named is Trichoderma reesei. Briefly: Antimicrobial activity against Trichoderma reesei assessed as growth inhibition by microdilution method. The class given is functional.
In the next assay the test system is Escherichia coli. Kind of assay: Antimicrobial activity against Escherichia coli assessed as growth inhibition by microdilution method.
The test system of a further assay is Bacillus subtilis. Kind of assay: Antimicrobial activity against Bacillus subtilis assessed as growth inhibition by microdilution method.
A further assay concerns Staphylococcus aureus. Kind of assay: Antimicrobial activity against Staphylococcus aureus assessed as growth inhibition by microdilution method.
The next assay relates to Klebsiella aerogenes. Kind of assay: Antimicrobial activity against Enterobacter aerogenes assessed as growth inhibition by microdilution method.
The subject of a further assay is Streptococcus pyogenes. Kind of assay: Antimicrobial activity against Streptococcus pyogenes assessed as growth inhibition by microdilution method.
The next assay deals with Salmonella typhimurium. Briefly: Antimicrobial activity against Salmonella enterica subsp. enterica serovar Typhimurium assessed as growth inhibition by microdilution method.

Take `Cc1ccc2nc3c(cc2c1)C=NN=C(Nc1ccccc1)S3`: the minimal inhibitory concentration (MIC) was above 1000 µg/mL in the assay with Curvularia australiensis; 1000 µg/mL with Aspergillus niger; 1000 µg/mL in the assay on Alternaria alternata; 500 µg/mL in the assay with Aspergillus flavus; 500 µg/mL in the assay on Trichoderma reesei; above 1000 µg/mL in the assay on Escherichia coli. For the same molecule, the MIC is 1000 µg/mL in the assay with Bacillus subtilis; 1000 µg/mL with Staphylococcus aureus; 500 µg/mL in the assay on Klebsiella aerogenes; 500 µg/mL in the assay with Streptococcus pyogenes; 500 µg/mL in the assay on Salmonella typhimurium.

In the case of `Cc1ccc2nc3c(cc2c1)C=NN=C(Nc1ccccc1F)S3`, the MIC was above 1000 µg/mL with Curvularia australiensis; above 1000 µg/mL in the assay with Aspergillus niger; 1000 µg/mL in the assay on Alternaria alternata; above 1000 µg/mL with Aspergillus flavus; 1000 µg/mL with Trichoderma reesei; 1000 µg/mL in the assay with Escherichia coli. Besides, the MIC turned out to be 1000 µg/mL in the assay on Bacillus subtilis; 500 µg/mL with Staphylococcus aureus; 60 µg/mL in the assay with Klebsiella aerogenes; 1000 µg/mL in the assay on Streptococcus pyogenes; 1000 µg/mL in the assay with Salmonella typhimurium.

Regarding `Cc1ccc2nc3c(cc2c1)C=NN=C(Nc1cccc(F)c1)S3`, the minimum inhibitory concentration (MIC) in the assay with Curvularia australiensis was above 1000 µg/mL; with Aspergillus niger, 1000 µg/mL; in the assay with Alternaria alternata, 500 µg/mL; in the assay with Aspergillus flavus it was 1000 µg/mL; in the assay on Trichoderma reesei, 1000 µg/mL; in the assay with Escherichia coli, above 1000 µg/mL. Moreover, the MIC in the assay on Bacillus subtilis, with Staphylococcus aureus, in the assay on Klebsiella aerogenes, in the assay on Streptococcus pyogenes and in the assay on Salmonella typhimurium was above 1000 µg/mL throughout.

Consider `Cc1ccc2nc3c(cc2c1)C=NN=C(Nc1ccc(F)cc1)S3`, for which the MIC with Curvularia australiensis was above 1000 µg/mL; in the assay with Aspergillus niger, 1000 µg/mL; with Alternaria alternata, 1000 µg/mL; in the assay on Aspergillus flavus, above 1000 µg/mL; in the assay on Trichoderma reesei, 1000 µg/mL; in the assay with Escherichia coli, 500 µg/mL. In addition, the MIC turned out to be 250 µg/mL in the assay on Bacillus subtilis; 250 µg/mL in the assay with Staphylococcus aureus; 125 µg/mL in the assay with Klebsiella aerogenes; 500 µg/mL in the assay with Streptococcus pyogenes; 250 µg/mL in the assay with Salmonella typhimurium.

Consider `Cc1ccc2nc3c(cc2c1)C=NN=C(Nc1ccccc1Cl)S3`, for which the MIC with Curvularia australiensis was 1000 µg/mL; in the assay with Aspergillus niger it was above 1000 µg/mL; in the assay on Alternaria alternata, 1000 µg/mL; in the assay with Aspergillus flavus, 500 µg/mL; with Trichoderma reesei it was 1000 µg/mL; in the assay with Escherichia coli, 500 µg/mL. In addition, the MIC came out at 1000 µg/mL in the assay on Bacillus subtilis; 1000 µg/mL in the assay on Staphylococcus aureus; 60 µg/mL with Klebsiella aerogenes; 500 µg/mL in the assay with Streptococcus pyogenes; 1000 µg/mL in the assay on Salmonella typhimurium.

Regarding `Cc1ccc2nc3c(cc2c1)C=NN=C(Nc1cccc(Cl)c1)S3`, the MIC with Curvularia australiensis was 1000 µg/mL; in the assay on Aspergillus niger it was 1000 µg/mL; with Alternaria alternata, 500 µg/mL; in the assay on Aspergillus flavus, 1000 µg/mL; with Trichoderma reesei it was 500 µg/mL; in the assay on Escherichia coli it was 1000 µg/mL. The MIC in the assay on Bacillus subtilis was 1000 µg/mL; in the assay on Staphylococcus aureus, 1000 µg/mL; with Klebsiella aerogenes, 250 µg/mL; in the assay on Streptococcus pyogenes it was above 1000 µg/mL; in the assay with Salmonella typhimurium it was 1000 µg/mL.

`Cc1ccc2nc3c(cc2c1)C=NN=C(Nc1ccc(Cl)cc1)S3`: the MIC in the assay on Curvularia australiensis is 500 µg/mL; with Aspergillus niger it was 500 µg/mL; in the assay on Alternaria alternata, 30 µg/mL; in the assay on Aspergillus flavus it was 1000 µg/mL; in the assay on Trichoderma reesei, 500 µg/mL; in the assay with Escherichia coli, above 1000 µg/mL. In addition, the MIC is 1000 µg/mL in the assay with Bacillus subtilis; 1000 µg/mL in the assay with Staphylococcus aureus; 1000 µg/mL in the assay on Klebsiella aerogenes; above 1000 µg/mL in the assay with Streptococcus pyogenes; above 1000 µg/mL with Salmonella typhimurium.

A word on the MIC: it is the lowest concentration found to suppress growth.
